Data published in US20230357222A1, “SELECTIVE SMALL MOLECULE DEGRADERS OF CEREBLON” (DANA-FARBER CANCER INSTITUTE, INC., priority 2020, published 2023).

What was measured:
Format in all cases: cell-based
[1] = target: T1, cereblon (CRBN) (Homo sapiens, UniProt Q96SW2); experiment: CRBN degradation in MM1.s cells, time course experiment, immunoblot; conditions: 50-nM dose
T1 construct: endogenous in cells; host or cells: MM1.s cells (also HEK293T, MOLT4, SK-N-DZ and Kelly cells for compound 1)
Experimental: (§1) MM1.S cells were generously provided by James Bradner (Dana-Farber Cancer Institute (DFCI), Boston, MA). MM1.S cells were cultured in Roswell Park Memorial Institute (RPMI)-1640 media containing L-glutamine, supplemented with 10% fetal bovine serum (FBS) and 1% penicillin/streptomycin. Mycoplasma testing was performed on a monthly basis and all lines were negative.
(§2) Cells were washed with ice cold phosphate-buffered saline (PBS) before being lysed with Cell Lysis Buffer (Cell Signaling Technology®) supplemented with protease and phosphatase inhibitor cocktails (Roche®) at 4° C. for 15 minutes. The cell lysate was vortexed before being centrifuged at 14,000×g for 20 min at 4° C. Protein in cell lysate was quantified by bicinchoninic acid (BCA) assay (Pierce™). Primary antibodies used in this study include CDK9 (Cell Signaling Technology®, 2316S), CKlα (Abcam®, ab206652), CRBN (Novus Biologicals®, NBP1-91810), eRF3/GSPT1 (Abcam®, ab49878), IKZF1 (Ikaros) (Cell Signaling Technology®, 5443S), IKZF3 (Aiolos) (Cell Signaling Technology®, 15103S), VHL (Cell Signaling Technology®, 68547S), and vinculin (Abcam®, ab130007). Blot quantification was performed using Image Studio 4.0 software, normalizing to loading controls.
The experimental protocol is set forth above in Example 7.

[2] = target: T1, cereblon (CRBN); experiment: Proteomic analysis (TMT LC-MS3) of protein abundance in cells; conditions: MM1.s cells, 50 nM, 6 hours
Experimental: MM1.s cells were treated with DMSO or 50 nM of bispecific compound 1 or 6 in biological triplicates for 6 hours and cells harvested by centrifugation. Lysis buffer (8 M Urea, 50 mM NaCl, 50 mM 4-(2hydroxyethyl)-1-piperazineethanesulfonic acid (EPPS) pH 8.5, Protease and Phosphatase inhibitors from Roche®) was added to the cell pellets and homogenized by 20 passes through a 21 gauge (1.25 in. long) needle to achieve a cell lysate with a protein concentration between 1-4 mg mL-1. A micro-BCA assay (Pierce™) was used to determine the final protein concentration in the cell lysate. 200 μg of protein for each sample were reduced and alkylated as described in Donovan et al., Elife 7:e38430 (2018).
Proteins were precipitated using methanol/chloroform. In brief, four volumes of methanol were added to the cell lysate, followed by one volume of chloroform, and finally three volumes of water. […]
Anhydrous ACN was added to each peptide sample to a final concentration of 30% v/v, and labeling was induced with the addition of TMT reagent to each sample at a ratio of 1:4 peptide:TMT label. […] The sample channels were combined at a 1:1:1:1:1:1:1:1:1:1 ratio, desalted using C18 solid phase extraction cartridges (Waters®) and analyzed by LC-MS for channel ratio comparison. Samples were then combined using the adjusted volumes determined in the channel ratio analysis and dried down in a speed vacuum. […]

[3] = target: T1, cereblon (CRBN); experiment: CRBN degradation in MM1.s cells, 4-h dose titration, immunoblot; conditions: 4-h dose titration treatment
Experimental: as §1, §2

T1 sequence (Q96SW2 whole entry): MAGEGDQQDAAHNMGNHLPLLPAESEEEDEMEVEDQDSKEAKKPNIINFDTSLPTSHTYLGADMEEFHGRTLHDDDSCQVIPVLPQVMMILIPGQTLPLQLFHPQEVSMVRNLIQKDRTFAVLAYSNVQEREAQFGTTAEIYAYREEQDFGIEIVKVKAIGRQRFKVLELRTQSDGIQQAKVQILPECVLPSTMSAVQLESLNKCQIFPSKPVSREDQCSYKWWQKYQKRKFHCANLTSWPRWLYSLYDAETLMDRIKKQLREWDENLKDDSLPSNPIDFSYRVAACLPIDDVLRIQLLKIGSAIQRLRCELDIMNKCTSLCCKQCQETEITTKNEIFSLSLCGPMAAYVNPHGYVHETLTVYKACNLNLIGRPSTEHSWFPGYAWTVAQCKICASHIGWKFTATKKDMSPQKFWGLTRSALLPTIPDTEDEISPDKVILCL

earliest time at which CRBN degradation is seen after treatment [1] [h] | proteins significantly degraded by proteomic analysis (selectivity) [2] | concentration at which virtually complete degradation of CRBN is seen [3] | SMILES | CRBN degrader potency and selectivity (in words) [3]
1 | only CRBN was significantly degraded | around 50 nM | Cc1ncsc1-c1ccc(CNC(=O)[C@@H]2C[C@@H](O)CN2C(=O)[C@@H](NC(=O)CCCCCCCCCCOc2cccc3c2C(=O)N(C2CCC(=O)NC2=O)C3=O)C(C)(C)C)cc1 (stereo partly drawn) [Compound 1, (2S,4R)-1-((2S)-2-(11-((2-(2,6-dioxopiperidin-3-yl)-1,3-dioxoisoindolin-4-yl)oxy)undecanamido)-3,3-dimethylbutanoyl)-4-hydroxy-N-(4-(4-methylthiazol-5-yl)benzyl)pyrrolidine-2-carboxamide] | highly potent and selective degraders of CRBN
1 | only CRBN was significantly degraded | around 50 nM | Cc1ncsc1-c1ccc([C@H](C)NC(=O)[C@@H]2C[C@@H](O)CN2C(=O)[C@@H](NC(=O)CCCCCCCCCCOc2cccc3c2C(=O)N(C2CCC(=O)NC2=O)C3=O)C(C)(C)C)cc1 (stereo partly drawn) [Compound 6, (2S,4R)-1-((2S)-2-(11-((2-(2,6-Dioxopiperidin-3-Yl)-1,3-Dioxoisoindolin-4-Yl)Oxy)Undecanamido)-3,3-Dimethylbutanoyl)-4-Hydroxy-N-((S)-1-(4-(4-Methylthiazol-5-Yl)Phenyl)Ethyl)Pyrrolidine-2-Carboxamide] | highly potent and selective degraders of CRBN
